Measurements as given in ChEMBL document CHEMBL3751730, “Synthesis and in vitro antitumor evaluation of dihydroartemisinin-cinnamic acid ester derivatives” (Eur J Med Chem, 2016).
Active and inactive are the calls of the source. The rule behind the calls is not given here.

Tests used:
[1] = Drug degradation at 2 to 4 mg at 210 to 220 degC by thermogravimetric analysis in the presence of nitrogen gas; assay type: physicochemical; conditions: for degraded: in vivo, read-out: Drug degradation
A549 [2] = assay: Antiproliferative activity against human A549 cells after 72 hrs by MTT assay; assay type: functional, cell-based; conditions: A549, 72 h
[3] = Antiproliferative activity against human PC3 cells after 72 hrs by MTT assay; assay type: functional, cell-based; conditions: PC-3, 72 h
[4] = Chemical stability of the compound at 2 to 4 mg at 25 to 300 degC by differential scanning […] analysis in the presence of nitrogen gas; assay type: physicochemical
[5] = Antiproliferative activity against human MDA-MB-435S cells after 72 hrs by MTT assay; assay type: functional, cell-based
[6] = Antiproliferative activity against human SGC7901 cells after 72 hrs by MTT assay; assay type: functional, cell-based; conditions: SGC-7901, 72 h
[7] = Cytotoxicity against human L02 cells after 72 hrs by MTT assay; assay type: cell-based; conditions: L02, 72 h
[8] = Selectivity index, ratio of IC50 for human L02 cells to IC50 for human A549 cells; assay type: functional
A549 [9] = assay: Induction of apoptosis in human A549 cells assessed as reactive oxygen species formation at 30 uM by DCFH-DA staining based FLIPR assay; assay type: functional, cell-based; conditions: TDE = time-dependent effect
A549 [10] = assay: Induction of apoptosis in human A549 cells assessed as nuclear rounding at 30 uM after 48 hrs by Hoechst 33258 staining based fluorescence microscopic analysis; assay type: functional, cell-based
A549 [11] = assay: Induction of apoptosis in human A549 cells assessed as nuclear rounding at 3 uM after 48 hrs by Hoechst 33258 staining based fluorescence microscopic analysis; assay type: functional, cell-based
A549 [12] = assay: Induction of apoptosis in human A549 cells assessed as early apoptotic cells at 3 uM after 48 hrs by Annexin V-FITC/propidium iodide staining based flow cytrometric analysis (reference value: 0.63%); assay type: functional
A549 [13] = assay: Induction of apoptosis in human A549 cells assessed as cell shrinkage at 30 uM after 48 hrs by Hoechst 33258 staining based fluorescence microscopic analysis; assay type: functional
A549 [14] = assay: Induction of apoptosis in human A549 cells assessed as nuclear rounding at 10 uM after 48 hrs by Hoechst 33258 staining based fluorescence microscopic analysis; assay type: functional, cell-based
A549 [15] = assay: Induction of apoptosis in human A549 cells assessed as cell shrinkage at 3 uM after 48 hrs by Hoechst 33258 staining based fluorescence microscopic analysis; assay type: functional
A549 [16] = assay: Induction of apoptosis in human A549 cells assessed as nuclei blebbing at 10 uM after 48 hrs by Hoechst 33258 staining based fluorescence microscopic analysis; assay type: functional, cell-based
A549 [17] = assay: Induction of apoptosis in human A549 cells assessed as early apoptotic cells at 30 uM after 48 hrs by Annexin V-FITC/propidium iodide staining based flow cytrometric analysis (reference value: 0.63%); assay type: functional
A549 [18] = assay: Induction of apoptosis in human A549 cells assessed as early apoptotic cells at 30 uM after 48 hrs by Annexin V/propidium iodide staining based flow cytrometric analysis in presence of 5 mM NAC (reference value: 0.63%); assay type: functional
A549 [19] = assay: Induction of reactive oxygen species generation in human A549 cells at 30 uM measured for 20 hrs by DCFH-DA staining based fluorescence assay in presence of 3 uM DFO; assay type: functional, cell-based
A549 [20] = assay: Induction of apoptosis in human A549 cells assessed as early apoptotic cells at 10 uM after 48 hrs by Annexin V-FITC/propidium iodide staining based flow cytrometric analysis (reference value: 0.63%); assay type: functional
A549 [21] = assay: Induction of apoptosis in human A549 cells assessed as nuclei blebbing at 30 uM after 48 hrs by Hoechst 33258 staining based fluorescence microscopic analysis; assay type: functional, cell-based
A549 [22] = assay: Induction of apoptosis in human A549 cells assessed as cell shrinkage at 10 uM after 48 hrs by Hoechst 33258 staining based fluorescence microscopic analysis; assay type: functional
A549 [23] = assay: Induction of apoptosis in human A549 cells assessed as early apoptotic cells at 30 uM after 48 hrs by Annexin V/propidium iodide staining based flow cytometric analysis in the absence of 3 uM DFO (reference value: 0.63%); assay type: functional
A549 [24] = assay: Induction of apoptosis in human A549 cells assessed as early apoptotic cells at 30 uM after 48 hrs by Annexin V/propidium iodide staining based flow cytrometric analysis in absence of 5 mM NAC (reference value: 0.63%); assay type: functional
[25] = Induction of apoptosis in human L02 cells assessed as reactive oxygen species formation at 10 uM after 48 hrs by DCFH-DA staining based fluorescence microscopic analysis; assay type: cell-based; conditions: l02, 48 h
A549 [26] = assay: Induction of apoptosis in human A549 cells assessed as early apoptotic cells at 30 uM after 48 hrs by Annexin V/propidium iodide staining based flow cytometric analysis in presence of 3 uM DFO (reference value: 0.63%); assay type: functional
[27] = Induction of apoptosis in human L02 cells assessed as reactive oxygen species formation at 30 uM after 48 hrs by DCFH-DA staining based fluorescence microscopic analysis; assay type: cell-based; conditions: l02, 48 h
A549 [28] = assay: Induction of apoptosis in human A549 cells after 48 hrs by Annexin V-FITC/propidium iodide staining based flow cytometric analysis; assay type: functional, cell-based
A549 [29] = assay: Induction of apoptosis in human A549 cells assessed as cell viability at 3 to 30 uM after 48 hrs by MTT assay in presence of 5 mM NAC; assay type: functional, cell-based
A549 [30] = assay: Induction of apoptosis in human A549 cells assessed as nuclei blebbing at 3 uM after 48 hrs by Hoechst 33258 staining based fluorescence microscopic analysis; assay type: functional, cell-based
[31] = Induction of apoptosis in human L02 cells assessed as reactive oxygen species formation at 30 uM measured for 20 hrs by DCFH-DA staining based FLIPR assay; assay type: cell-based; conditions: l02, 20 h
A549 [32] = assay: Antiproliferative activity against human A549 cells at 0.20 uM after 72 hrs by MTT assay; assay type: functional, cell-based
A549 [33] = assay: Induction of apoptosis in human A549 cells assessed as reactive oxygen species formation after 48 hrs by DCFH-DA staining based fluorescence microscopic analysis; assay type: functional, cell-based
A549 [34] = assay: Cytotoxicity against human A549 cells assessed as cell viability at 3 to 30 uM after 48 hrs by MTT assay in presence of 3 uM DFO; assay type: functional, cell-based
A549 [35] = assay: Antiproliferative activity against human A549 cells at 0.20 uM after 72 hrs by MTT assay in presence of 0.40 uM 3,4-dimethoxycinnamic acid; assay type: functional, cell-based
A549 [36] = assay: Antiproliferative activity against human A549 cells at 0.40 uM after 72 hrs by MTT assay; assay type: functional, cell-based
A549 [37] = assay: Antiproliferative activity against human A549 cells at 0.40 uM after 72 hrs by MTT assay in presence of 0.20 uM 9alpha-DHA; assay type: functional, cell-based

COc1cccc(/C=C/C(=O)O[C@@H]2O[C@@H]3O[C@@]4(C)CC[C@H]5[C@H](C)[C@H](OC(=O)/C=C/c6cccc(OC)c6)C[C@@H]([C@H]2C)[C@@]35OO4)c1
degraded [1]: 1% | IC50 (A549 [2]): 0.8 µM | IC50 [3]: 43.9 µM | Stability [4]: Stable | IC50 [5]: 18.2 µM | IC50 [6]: 16.2 µM

O=c1[nH]cc(F)c(=O)[nH]1 [FLUOROURACIL]
IC50 [3]: 42.5 µM | IC50 [7]: 25.9 µM | IC50 [5]: 15.2 µM | IC50 [6]: 11.9 µM | Ratio IC50 [8]: 3.83

COc1ccc(/C=C/C(=O)O[C@@H]2O[C@@H]3O[C@@]4(C)CC[C@H]5[C@H](C)[C@H](OC(=O)/C=C/c6ccc(OC)c(OC)c6)C[C@@H]([C@H]2C)[C@@]35OO4)cc1OC
Activity (A549 [9]): tde | Activity (A549 [10]): Active | Activity (A549 [11]): Active | Activity (A549 [12]): 4.33% | IC50 (A549 [2]): 0.2 µM | Activity (A549 [13]): Active | Activity (A549 [14]): Active | IC50 [3]: 22.7 µM | Activity (A549 [15]): Active | Activity (A549 [16]): Active | IC50 [7]: 80.2 µM | Activity (A549 [17]): 16.88% | Activity (A549 [18]): 4.71% | Activity (A549 [19]): inactive | Activity (A549 [20]): 14.01% | Activity (A549 [21]): Active | Activity (A549 [22]): Active | Activity (A549 [23]): 16.88% | Activity (A549 [24]): 16.88% | Activity [25]: Non-toxic | Activity (A549 [26]): 2.17% | IC50 [5]: 6.23 µM | Activity [27]: Non-toxic | Activity (A549 [28]): Dose-dependent effect | Activity (A549 [29]): inactive | Activity (A549 [30]): Active | IC50 [6]: 4.94 µM | Ratio IC50 [8]: 401.25 | Activity [31]: Non-toxic | Activity (A549 [32]): Active | Activity (A549 [33]): Dose-dependent effect | Activity (A549 [34]): inactive

COc1cc(/C=C/C(=O)O[C@@H]2O[C@@H]3O[C@@]4(C)CC[C@H]5[C@H](C)[C@H](OC(=O)/C=C/c6cc(OC)c(OC)c(OC)c6)C[C@@H]([C@H]2C)[C@@]35OO4)cc(OC)c1OC
degraded [1]: 1% | IC50 (A549 [2]): 0.5 µM | IC50 [3]: 17.2 µM | IC50 [7]: 58.6 µM | Stability [4]: Stable | IC50 [5]: 5.33 µM | IC50 [6]: 11.8 µM | Ratio IC50 [8]: 117.3

C[C@@H]1[C@H](OC(=O)/C=C/c2ccccc2)C[C@H]2[C@@H](C)[C@H](OC(=O)/C=C/c3ccccc3)O[C@@H]3O[C@@]4(C)CC[C@@H]1[C@]32OO4
degraded [1]: 1% | IC50 (A549 [2]): 4.42 µM | IC50 [3]: 36 µM | Stability [4]: Stable | IC50 [5]: 18 µM | IC50 [6]: 12.8 µM

COc1ccc(/C=C/C(=O)O[C@@H]2O[C@@H]3O[C@@]4(C)CC[C@H]5[C@H](C)[C@H](OC(=O)/C=C/c6ccc(OC)c(OC)c6OC)C[C@@H]([C@H]2C)[C@@]35OO4)c(OC)c1OC
IC50 (A549 [2]): 1.66 µM | IC50 [3]: 2.95 µM | IC50 [7]: 57.9 µM | IC50 [5]: 16.6 µM | IC50 [6]: 19.6 µM | Ratio IC50 [8]: 34.88

C[C@H]1[C@@H](O)O[C@@H]2O[C@@]3(C)CC[C@H]4[C@H](C)CC[C@@H]1[C@@]24OO3 [ARTENIMOL]
Stability [1]: Unstable | IC50 (A549 [2]): 80.4 µM | IC50 [3]: > 100 µM | IC50 [7]: 146 µM | IC50 [5]: 21.9 µM | IC50 [6]: > 100 µM | Ratio IC50 [8]: 1.81

C[C@@H]1[C@H](OC(=O)/C=C/c2ccc(Cl)cc2)C[C@H]2[C@@H](C)[C@H](OC(=O)/C=C/c3ccc(Cl)cc3)O[C@@H]3O[C@@]4(C)CC[C@@H]1[C@]32OO4
degraded [1]: 1% | IC50 (A549 [2]): 1.5 µM | IC50 [3]: 6.76 µM | Stability [4]: Stable | IC50 [5]: 58.3 µM | IC50 [6]: 21.3 µM

C[C@@H]1[C@H](O)C[C@H]2[C@@H](C)[C@@H](O)O[C@@H]3O[C@@]4(C)CC[C@@H]1[C@]32OO4
IC50 (A549 [2]): > 100 µM | IC50 [3]: > 100 µM | Activity (A549 [35]): inactive | IC50 [5]: 57.8 µM | IC50 [6]: > 100 µM | Activity (A549 [32]): inactive

COc1ccc(/C=C/C(=O)O)cc1OC
Activity (A549 [36]): inactive | Activity (A549 [37]): inactive

C[C@@H]1[C@H](O)C[C@H]2[C@@H](C)[C@H](OC(=O)/C=C/c3ccc([N+](=O)[O-])cc3)O[C@@H]3O[C@@]4(C)CC[C@@H]1[C@]32OO4
IC50 (A549 [2]): > 100 µM | IC50 [3]: > 100 µM | IC50 [5]: > 100 µM | IC50 [6]: > 100 µM

COc1ccc(/C=C/C(=O)O[C@@H]2O[C@@H]3O[C@@]4(C)CC[C@H]5[C@H](C)[C@H](OC(=O)/C=C/c6ccc(OC)cc6)C[C@@H]([C@H]2C)[C@@]35OO4)cc1
IC50 (A549 [2]): 7.01 µM | IC50 [3]: 9.58 µM | IC50 [5]: 41.5 µM | IC50 [6]: 28.3 µM
